These results are taken from patent publication EP4563586A1, “NEW INHIBITORS OF LRRK2/PP1 INTERACTION” (Université Paris Cité, priority 2023, dated 2025).

Non-standard residues stand in square brackets, D forms with d. Residues, ends and D or L forms follow the SMILES beside them. No end group written: not given here. Ahx = NCCCCCC(=O)O A value given as a limit tells only on which side of the number the result lay.

Data set [1] can be described thus: Peptide stability in human serum (MALDI-TOF). The data set is classed as in vitro ADME. To be noted: for remaining at 24 h, 100 µM: after 24h of incubation at 37°C in human serum, 100 µM (Figure 6), read-out: peptide still present. The method, then: The peptides were incubated at 37°C in 250 µL of human serum (Gibco) for different periods of time. Samples were collected and peptide degradation stopped by freezing at -20°C. The peptide was extracted from samples using the Proteo Miner Protein Enrichment System (Bio-Rad). The percentage of intact peptide was estimated by MS using MALDI-TOFF using the protocol previously described (Bruker Autoflex II) according to the manufacturer's instructions. Measurements were performed in triplicate. MS data were analysed using the software Cliprot tools, Flex analysis, Bruker.

Data set [2] addresses T1, Leucine-rich repeat kinase 2 (LRRK2), human (human, UniProt Q5S007 1-2527).
T1 construct: Protein as present in MDA-MB231 lysates; also called dardarin
Nature of the data set: PP1 dodecapeptide array on cellulose membrane.

T1 sequence (Q5S007 whole entry R50H/L212S): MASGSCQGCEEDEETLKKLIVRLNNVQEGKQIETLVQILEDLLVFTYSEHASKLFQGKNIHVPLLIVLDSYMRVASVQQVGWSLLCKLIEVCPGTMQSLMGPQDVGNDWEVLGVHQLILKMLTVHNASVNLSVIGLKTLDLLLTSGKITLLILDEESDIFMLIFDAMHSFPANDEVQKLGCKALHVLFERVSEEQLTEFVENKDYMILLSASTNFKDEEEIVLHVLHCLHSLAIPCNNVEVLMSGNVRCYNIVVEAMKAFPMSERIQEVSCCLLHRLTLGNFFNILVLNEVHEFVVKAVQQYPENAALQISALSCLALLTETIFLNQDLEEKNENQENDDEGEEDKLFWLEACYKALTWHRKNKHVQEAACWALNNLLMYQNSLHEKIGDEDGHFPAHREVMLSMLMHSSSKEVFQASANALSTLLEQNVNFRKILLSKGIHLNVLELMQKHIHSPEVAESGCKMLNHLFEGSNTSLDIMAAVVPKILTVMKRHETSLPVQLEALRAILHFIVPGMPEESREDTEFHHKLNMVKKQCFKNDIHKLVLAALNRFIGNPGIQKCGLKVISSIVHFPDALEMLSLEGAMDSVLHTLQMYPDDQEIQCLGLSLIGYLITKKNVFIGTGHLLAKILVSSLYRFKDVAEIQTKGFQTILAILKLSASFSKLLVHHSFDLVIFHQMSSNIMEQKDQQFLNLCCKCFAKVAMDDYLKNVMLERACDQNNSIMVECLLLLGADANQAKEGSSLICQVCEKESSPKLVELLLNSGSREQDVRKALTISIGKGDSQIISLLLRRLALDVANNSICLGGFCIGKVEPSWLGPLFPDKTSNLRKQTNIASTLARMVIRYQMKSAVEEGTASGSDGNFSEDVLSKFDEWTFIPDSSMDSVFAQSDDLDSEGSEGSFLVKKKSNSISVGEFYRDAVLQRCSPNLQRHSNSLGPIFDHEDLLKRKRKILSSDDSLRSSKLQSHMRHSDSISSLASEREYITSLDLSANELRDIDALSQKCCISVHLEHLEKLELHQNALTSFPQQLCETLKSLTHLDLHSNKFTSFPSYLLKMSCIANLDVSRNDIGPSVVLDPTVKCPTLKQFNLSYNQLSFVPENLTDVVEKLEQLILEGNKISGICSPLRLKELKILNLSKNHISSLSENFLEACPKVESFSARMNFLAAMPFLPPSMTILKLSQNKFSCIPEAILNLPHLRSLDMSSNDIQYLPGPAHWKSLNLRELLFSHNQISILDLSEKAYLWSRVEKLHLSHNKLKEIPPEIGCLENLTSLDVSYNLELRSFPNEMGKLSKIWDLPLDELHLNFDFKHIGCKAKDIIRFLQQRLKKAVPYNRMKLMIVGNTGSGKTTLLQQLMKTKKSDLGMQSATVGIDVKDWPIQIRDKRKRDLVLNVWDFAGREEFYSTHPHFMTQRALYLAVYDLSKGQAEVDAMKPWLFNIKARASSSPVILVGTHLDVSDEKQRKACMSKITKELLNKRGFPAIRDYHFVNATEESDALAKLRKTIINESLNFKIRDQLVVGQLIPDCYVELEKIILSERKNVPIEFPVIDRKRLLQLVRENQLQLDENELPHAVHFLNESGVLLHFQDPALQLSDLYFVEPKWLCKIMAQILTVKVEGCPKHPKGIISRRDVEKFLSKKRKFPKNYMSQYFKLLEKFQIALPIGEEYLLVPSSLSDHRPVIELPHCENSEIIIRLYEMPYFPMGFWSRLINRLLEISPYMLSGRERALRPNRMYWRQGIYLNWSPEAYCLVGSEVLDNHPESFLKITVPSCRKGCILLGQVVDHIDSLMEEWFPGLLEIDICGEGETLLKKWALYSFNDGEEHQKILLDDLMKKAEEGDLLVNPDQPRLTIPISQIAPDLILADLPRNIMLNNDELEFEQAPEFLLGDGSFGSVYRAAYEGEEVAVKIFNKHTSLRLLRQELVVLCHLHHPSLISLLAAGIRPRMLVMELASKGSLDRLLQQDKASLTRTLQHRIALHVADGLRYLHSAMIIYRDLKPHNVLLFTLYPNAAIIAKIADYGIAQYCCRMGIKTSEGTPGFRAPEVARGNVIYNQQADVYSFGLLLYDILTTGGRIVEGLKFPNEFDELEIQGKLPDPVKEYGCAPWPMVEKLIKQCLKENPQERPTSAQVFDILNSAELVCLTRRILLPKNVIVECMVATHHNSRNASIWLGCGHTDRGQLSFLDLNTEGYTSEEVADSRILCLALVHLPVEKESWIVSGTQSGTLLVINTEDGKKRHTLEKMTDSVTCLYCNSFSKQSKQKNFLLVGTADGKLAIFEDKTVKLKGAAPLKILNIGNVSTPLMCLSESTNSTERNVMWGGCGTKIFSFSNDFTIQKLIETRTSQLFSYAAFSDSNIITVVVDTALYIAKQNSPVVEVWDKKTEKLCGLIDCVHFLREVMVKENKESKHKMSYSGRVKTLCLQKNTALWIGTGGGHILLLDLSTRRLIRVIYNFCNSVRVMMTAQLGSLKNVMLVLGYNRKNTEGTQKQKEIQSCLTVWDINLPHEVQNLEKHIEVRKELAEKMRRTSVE

On to “GFWSRLINRLLEIGGSSRRVISRAKLAAAL [Peptide 2, GFWSRLINRLLEI- GGS -SRRVISRAKLAAAL]”, for which the remaining at 24 h, 100 µM in data set [1] was over 90%.
In the case of `CC[C@H](C)[C@H](NC(=O)[C@H](CCC(=O)O)NC(=O)[C@H](CC(C)C)NC(=O)[C@H](CC(C)C)NC(=O)[C@H](CCCNC(=N)N)NC(=O)[C@H](CC(N)=O)NC(=O)[C@@H](NC(=O)[C@H](CC(C)C)NC(=O)[C@H](CCCNC(=N)N)NC(=O)[C@H](CO)NC(=O)[C@H](Cc1c[nH]c2ccccc12)NC(=O)[C@H](Cc1ccccc1)NC(=O)CN)[C@@H](C)CC)C(=O)NCCCCCC(=O)N[C@@H](CO)C(=O)N[C@@H](CCCNC(=N)N)C(=O)N[C@@H](CCCNC(=N)N)C(=O)N[C@H](C(=O)N[C@H](C(=O)N[C@@H](CO)C(=O)N[C@@H](CCCNC(=N)N)C(=O)N[C@@H](C)C(=O)N[C@@H](CCCCN)C(=O)N[C@@H](CC(C)C)C(=O)N[C@@H](C)C(=O)N[C@@H](C)C(=O)N[C@@H](C)C(=O)N[C@@H](CC(C)C)C(=O)O)[C@@H](C)CC)C(C)C` [Peptide 1, GFWSRLINRLLEI- AHx -SRRVISRAKLAAAL] (H-GFWSRLINRLLEI[Ahx]SRRVISRAKLAAAL-OH), in data set [1], the remaining at 24 h, 100 µM was over 90%. For the same molecule, the “stability in serum (resistance to proteases)” value in data set [1] (human serum, 37°C, result in words) is reported as “particularly high”.

B1: Peptide 21 (NPGGRPITPPRNSAKAKK), fragment of PP1 (peptide)
peptide: NPGGRPITPPRNSAKAKK
notes: Synthetic peptide, isolated fragment of PP1
Consider B1, for which the binding result in data set [2] is “binds”.

B2: Peptide 19 (VQGSRPGKNVQLTENE), fragment of PP1 (peptide)
peptide: VQGSRPGKNVQLTENE
notes: as for B1
Take B2: in data set [2], the binding result is “binds”.

B3: Peptide 20 (AEVVAKFLHKHDLDLICRAH), fragment of PP1 (peptide)
peptide: AEVVAKFLHKHDLDLICRAH
notes: as for B1
Regarding B3, the binding result in data set [2] was “binds”.
